According to a melting point compilation (Tetko et al.; mined from patent text by program, amines drawn as free bases though some values may be those of a salt):

SMILES	melting point [°C]
C[C@@H](C(=O)O)N(C(=O)[C@@H]1CS[C@H](c2ccccc2O)N1C(=O)CCSC(=O)c1ccccc1)c1ccccc1	95 to 100
COc1ccc(CNc2nc(CCCCC(=O)O)nc3sc(C)c(C)c23)cc1Cl	156
CCc1nc2c(ccc3nc(C)c(C)nc32)cc1C	137 to 138
CC(=O)N1CCN(N)c2ccccc2C1	66 to 68
CON=C(C)C1=CCCN(O)C1	94 to 96
COCN1NC(=O)N(C)C1c1ccccc1-c1ccc(CBr)cc1 (stereo unspecified)	137 to 138
CN1CCN(CCC2C(=O)NC(c3ccc(Cl)cc3)c3ccccc32)CC1 (stereo unspecified)	201 to 205
Cc1c(-c2ccccc2)oc2c(C(O)CCCO)cccc2c1=O (stereo unspecified)	133 to 134
COc1ccc(-c2nnsc2-c2ccc(OC)cc2)cc1	80 to 82
Cc1[nH]c2cccc3c2c1CC1C3CC(N)CN1C (stereo unspecified)	240
CC=Cn1c(C)c(C)c2cnnc(NCc3ccccc3)c21	130 to 131
CC(C)n1nc(-c2sc(NC(=O)OC(C)(C)C)nc2-c2ccccc2)ccc1=O	198 to 199
CC(C)(C)NC(=O)c1nn(-c2ccc([N+](=O)[O-])cc2)c2c1C1CCC2C1 (stereo unspecified)	224 to 226
O=c1nc(-c2cccc(S(=O)CCCc3ccccc3)n2)sc2ccccc12 (stereo unspecified)	164 to 166
COc1c(C)cnc(CSc2nc3ncc(O)cc3[nH]2)c1C	178 to 180
C[C@@H]1S[C@@H](C(=O)Nc2ccc(CN3CCSC3)cc2)Cc2cc3c(cc2C1=O)OCO3	179 to 181
Cc1nc2n(n1)C(N1CCN(C)CC1)=Nc1ccccc1C2	185 to 187
CCOC(=O)c1cn(CC)c2nn(C)cc2c1=O	170 to 172
COc1c(Cl)ccc(-c2cc(N)c(Cl)c(C(=O)NOC/C=C/Cl)n2)c1F	163 to 165
Cc1ncc(CN)c(N)n1	155
COC(NC(=O)c1ccccc1O)C(Cl)(Cl)Cl (stereo unspecified)	117 to 118
COC(=O)[C@@H](C)Oc1ccc(Oc2cnc3ccc(Cl)cc3n2)cc1	80
CCn1nc(Cl)c2ccn(-c3ccc(C)cc3C)c2c1=O	94 to 95
COc1ccc2nccc(CCC[C@@H]3CCN(CCC(F)c4ccccc4)C[C@@H]3C(=O)O)c2c1 (stereo partly specified)	60
NC(=O)C1CCCCc2cc3c(nc21)CCCCC3 (stereo unspecified)	179
CS(=O)(=O)c1cnc(NC(=O)c2ccccc2O)s1	282 to 283

SMILES	melting point [°C]
CN(C)CCCN(C)C(=O)Nc1ccc(-c2nnc(CSCCOc3ccccc3)o2)cc1	136 to 139
CCCCCCCCCCCCCCC(=O)Nc1ccn(C2OC(CO)C(O)C2O)c(=O)n1 (stereo unspecified)	142 to 145
COC(=O)c1sccc1Nc1ccc(F)cc1[N+](=O)[O-]	172 to 175
COc1ccc2nc(OC)cc(C)c2c1	58 to 59
O=C(NC1Cc2ccc([N+](=O)[O-])cc2C1)c1ccc(F)cc1 (stereo unspecified)	167
COc1cc(-c2cc(C3CCOC3)no2)cc2oc(=O)c(C)c(C)c12 (stereo unspecified)	122
N#CC(=Cc1ccc(CBr)cc1)S(=O)(=O)c1ccccc1	120 to 122
Cc1cc(COc2ccc(S(=O)(=O)NC[C@@H](C(=O)NO)N3CCCCC3)cc2)c2ccccc2n1	150
CCCCOc1ccccc1-c1ncc(C(=O)O)c(=O)[nH]1	163 to 165
CC(=NC#N)N[C@@H]1c2cc(C#N)ccc2OC(C)(C)[C@H]1O (relative stereo)	236 to 238
CN1CCN(c2ccc(N)cc2C(F)(F)F)CC1	121 to 123
CN(C)C(=O)C=CC(=O)N(C)C	130 to 131
CCOC(=S)c1c(COC)nc2cc(F)c(F)cc2c1O	126 to 129
COC(=O)c1ccc(OC)cc1C(C)=O	48 to 50
O=C(Nc1cccnc1S(=O)(=O)c1ccc(Cl)cc1)N[C@@H](Cc1ccc(NC(=O)c2c(Cl)cccc2Cl)cc1)C(=O)O	181
CC(=O)SCC(Cc1ccc(-c2ccccc2)cc1)C(=O)N[C@@H](CSCc1ccc(C)cc1)C(=O)O (stereo partly specified)	131 to 135
N#CCC(=O)NCc1ccc(Cl)c(Cl)c1	144 to 145
C=CC[C@H](C(N)=O)[C@@H](CC(C)C)C(=O)NC1C(=O)N(C)c2ccccc2-c2ccccc21 (stereo partly specified)	137 to 145
CCCC(=CC(=O)Nc1ccccc1)OC	104
CC(=O)NCCc1c(-c2ccccc2)oc2ccc3c(c12)OCCO3	192
CC(C)=CCC(C(=O)O)C(=O)O	96 to 97
COC(=O)c1ncn2c1CN(C)C(=O)c1ccccc1-2	212 to 214
CCCCCCCCCCCCc1cnn(C(C(=O)Nc2c(OC)cc(OC)cc2OC)c2ccccc2)c1 (stereo unspecified)	77 to 79
O=C(O)c1ccc(-c2ccc(Cl)cc2)cn1	> 260
CCCC12CCC(=O)C=C1c1c(cc(OC)c(Cl)c1Cl)C2=O (stereo unspecified)	167 to 169
OCc1cc(N2CCOCC2)ncn1	138

SMILES	melting point [°C]
Cc1oc2ccc(Nc3ncccc3N)cc2c1C	168 to 170
CCn1cc(C(=O)O)c(=O)c2cc(F)c(N3CCC(CNC(C)C)C3)nc21 (stereo unspecified)	302 to 304
Cc1ccc(O[C@@H](Cc2ccc(O)cc2)C(=O)N2C(=O)OC[C@@H]2Cc2ccccc2)cc1	135 to 136
c1ccc(CCn2ncc3c2ncn2nc(-c4ccco4)nc32)cc1	174 to 175
COC(=O)c1nn(C2CCCCO2)cc1NC(=O)c1ccccc1 (stereo unspecified)	124 to 125
CCCCCCC(=NO)C(=O)c1ccc(OC)c2ccccc12	92 to 93
COc1ccc(Nc2nc(NN3CCCCCC3)nc(N(C)C3CCNCC3)n2)cc1Cl	81
CCCN(CCC)C1Cc2cccc(C(=O)O)c2NC1=O (stereo unspecified)	214 to 217
O=C1C[C@@H](C(=O)OCc2ccccc2)N(C(=O)OCc2ccccc2)C1	55 to 56
Cc1cccc(C(=O)NC(C)C)c1[N+](=O)[O-]	126 to 128
COc1ccc2c(c1)C(=O)Cc1c(cccc1C(=O)O)S2	157 to 160
COc1ccc(N2CCN(c3ccc(OC)nc3-c3ccc(N(C)C)cc3)C(C)C2)cc1 (stereo unspecified)	140 to 148
Cc1sc(-c2ccc(-c3ccccc3)cc2)nc1CCOc1ccc(OC(C)(C)C(=O)O)cc1	174
C(#Cc1ccc(C=CC2=CC(c3ccc(C#Cc4ccccc4)cc3)N(c3ccccc3)N2)cc1)c1ccccc1 (stereo unspecified)	212 to 214
CCCCOC(=O)C(=O)Nc1cc(C#N)cc(NC(=O)C(=O)OCCCC)c1Cl	118 to 120
CCn1cc(C(=O)NCc2ccc(Cl)cc2)c(=O)c2cc(C#CCO)sc21	217 to 219
Cc1cc2oc(=O)c3c(c2cc1C)CCN(CCN1CC2CCC(CC2)C1)C3	174 to 175
CCOc1nn(Cc2ccc(OCc3cccnc3)cc2)cc1CCC(=O)O	120 to 121
O=c1[nH]nc2c3c(cccc13)Oc1ccc(COCCP(=O)(OCc3ccccc3)OCc3ccccc3)cc1-2	173 to 175
CN(C)c1cccc2c(S(=O)(=O)NCC(=O)N3CCCC3C(=O)NC(C=O)CCCN(C(=N)N)C(=O)OCc3ccccc3)cccc12 (stereo unspecified)	105 to 115
COCC(NC(C)=O)C(=O)NCc1ccccc1 (stereo unspecified)	142 to 143
O=C([C@H]1CCc2cc(Cl)c(Cl)cc21)N1CCSC[C@H]1CN1CCCC1	123 to 124
CCCNC(=O)c1nc(C)ccc1C(=O)Nc1cccc2ccccc12	175 to 178
O=C(O)c1c(Cl)nc(Cl)nc1Cl	150
COC(=O)c1c(OCc2ccccc2)ccc2c1CC[C@@H](N)[C@@H]2O (relative stereo)	124 to 126
O=c1[nH]ncc2c1c(O)nc1cc(Cl)cc(Cl)c12	> 350

SMILES	melting point [°C]
COC(=O)C1=Cc2cc(-c3ccc(C(C)(C)C)cc3)ccc2S(=O)(=O)CC1	170 to 172
COC=C(Oc1cccc(-c2ccc(Cl)cc2)n1)C(=O)OC	50 to 54
COC(=O)c1c(-c2ccc(C)cc2)c2cc(OCc3ccccc3)ccc2c(=O)n1CC(C)C	142 to 143
CC(C)CC1(CC(=O)NO)CCN(Cc2ccccc2)C1=O (stereo unspecified)	119 to 120
O=C(NC1CCN(C/C=C\CC(c2ccccc2)c2ccccc2)CC1)c1ccccc1Oc1ccccc1	91 to 94
CC(C)(C)OC(=O)N[C@H]1CCc2cc(-c3ccccc3)ccc2NC1=O	198 to 200
O=C(O)[C@H](Cc1ccccc1)Nc1c(NCc2cccnc2)c(=O)c1=O	259 to 261
O=C(O)C(CCc1ccc(Cl)cc1)(Cn1cncn1)c1ccccc1 (stereo unspecified)	188 to 190
NNC(=O)c1ccccc1Nc1cccc(C(F)(F)F)c1	134 to 135
O=C(c1cccs1)c1cnn2c(-c3csc([N+](=O)[O-])c3)ccnc12	225 to 226
COc1cc(NC(=O)N(CCCCCC(=O)O)c2ccccc2)c(O)c(C(C)(C)C)c1	95 to 98
CCOC(=O)C=Cc1ccc2c(c1)CC(CNS(=O)(=O)c1ccc(Cl)cc1)C2 (stereo unspecified)	113 to 115
CCN(CC)C(=O)c1c(C=O)cccc1[Si](C)(C)C	63.5 to 65.5
CCOC(=O)C(C#N)=Cc1cc(OC)c(OC)c2c1C=CCO2	104 to 108
Nc1cc2c(cc1F)OC(=O)CN2	> 250
CC(=O)OCc1coc(-c2cccc(C3=Nc4ccc(-n5cccc5)cc4NC(=O)C3)c2)n1	206 to 207
CCc1cc(NC(=O)N2CCc3cc(OC)c(C(F)(F)F)cc32)cc(-c2cccnc2)c1	205 to 207
Cc1ccccc1NNC(N)=S	158 to 160
Cc1cn(-c2cc(NC(=O)c3ccc(Cl)c(C#Cc4ccc(NC5CCC5)nn4)c3)cc(C(F)(F)F)c2)cn1	225 to 227
COc1ccc2c(c1)-c1noc(N3CCNCC3)c1CC2	86 to 88
CCC(CC)n1ncn(-c2ccc(N3CCN([C@H](C)[C@@](O)(Cn4cncn4)c4ccc(F)cc4F)CC3)cc2)c1=O	110 to 113
COc1ccc(N(CCC(=O)O)C(=O)Cl)cc1	90
O=c1c(CCc2cccs2)cc2cccnc2n1-c1cccc([N+](=O)[O-])c1	175 to 176
